In patent US7585460B2, “Method for inhibiting the biological acidification of water in contact with materials containing sulfur” (ENI S.p.A., priority 2003, dated 2009):

Tests used:
[1] = test system: Thiobacilli (microbial consortium); test: Comparison of NaCl and SLS, TM medium with sulfur flowers and inoculated mixed culture (Example 6); type: cell-based, Thiobacillus; conditions: for O.D. / p.H.: C: 20 mg/l of SLS
Protocol: The experiment was aimed at comparing the action of SLS, a known bacteriostatic for Thiobacilli, and Sodium Chloride on the same microbial consortium.
A series of 6 100 ml flasks containing 50 ml of TM medium (with 0.4 g of sulfur flowers), were inoculated with 1 ml of mixed culture containing 10^8 cells/ml.
• A—2 control flasks containing TM and sulfur, without NaCl; • B—2 flasks with TM, sulfur and 33 g/l of NaCl; • C—2 flasks with TM, sulfur and 20 mg/l of SLS (concentration used in literature as bacteriostatic) The pH values and the bacterial growth were measured over a period of 34 days, by means of the increase in the absorbance.

Thiobacilli = conditions: bacteriostatic product; literature (Clark et al. 1998); cited from earlier work
Thiobacilli (consortium) [2] = test: Effect of different salts on acidification, TM medium with sulfur powder and inoculated mixed culture (Example 7); type: cell-based, Thiobacillus
Protocol: The verification is aimed at discovering the effects deriving from the presence of different salts at varying concentrations on the same consortium.
A series of 12 100 ml flasks containing 50 ml of TM medium (with 0.4 g of sulfur powder), was inoculated with 1 ml of mixed culture containing 10^8 cells/ml.
• 3 control flasks containing TM and sulfur, with NaCl (0.16 M, 0.33 M, 0.56 M); • 3 flasks with TM, sulfur and Na2SO4 (0.12 M, 0.24 M, 0.56 M); • 3 flasks with TM, sulfur and KCl (0.13 M, 0.26 M, 0.56 M); • 3 flasks with TM, sulfur and KNO3 (0.09 M, 0.19 M, 0.56 M) The data collected are listed in Table 6.

Thiobacilli (consortium) [3] = test: as above; type: cell-based, Thiobacillus; conditions: salt 0.5 M, day 28

With CCCCCCCCCCCCOS(=O)(=O)[O-].[Na+] [SLS, Sodium Lauryl Sulfate, reference compound] the “inhibition of the acidification of water in contact with elemental sulfur” value ([1]; 33 g/l NaCl, 20 mg/l SLS) was “capable of inhibiting the acidification”, the O.D. ([1]; day 0) was 0.014 and the p.H. ([1]; day 0) was 6.0. It also gave an O.D. ([1]; day 3) of 0.013, a p.H. ([1]; day 3) of 4.5 and an O.D. ([1]; day 5) of 0.042. For the same compound, the p.H. ([1]; day 5) was 4.5, the O.D. ([1]; day 8) was 0.073 and the p.H. ([1]; day 8) was 4.0. It also gave an O.D. ([1]; day 11) of 0.067, a p.H. ([1]; day 11) of 4.0 and an O.D. ([1]; day 16) of 0.098. It also gave a p.H. ([1]; day 16) of 3.8, an O.D. ([1]; day 21) of 0.080 and a p.H. ([1]; day 21) of 3.8. It also gave an O.D. ([1]; day 23) of 0.035, a p.H. ([1]; day 23) of 3.8 and an O.D. ([1]; day 28) of 0.033. For the same compound, the p.H. ([1]; day 28) was 3.2, the O.D. ([1]; day 31) was 0.020 and the p.H. ([1]; day 31) was 3.2. For the same compound, the “reduction of corrosion of metallic containers used for transporting or containing sulfur” value (Thiobacilli) was “effective for reducing the corrosion”.

[Cl-].[K+] [KCl] gave a PH (Thiobacilli (consortium) [2]; salt 0.13 M, day 0) of 6.0, a PH (Thiobacilli (consortium) [2]; salt 0.13 M, day 2) of 6.0 and a PH (Thiobacilli (consortium) [2]; salt 0.13 M, day 6) of 4.5. It also gave a PH (Thiobacilli (consortium) [2]; salt 0.13 M, day 9) of 4.0, a PH (Thiobacilli (consortium) [2]; salt 0.13 M, day 12) of 3.5 and a PH (Thiobacilli (consortium) [2]; salt 0.13 M, day 15) of 3.0. The PH (Thiobacilli (consortium) [2]; salt 0.13 M, day 18) was 3.0, the PH (Thiobacilli (consortium) [2]; salt 0.13 M, day 20) was 3.0 and the PH (Thiobacilli (consortium) [2]; salt 0.13 M, day 24) was 2.5. It also gave a PH (Thiobacilli (consortium) [2]; salt 0.13 M, day 28) of 2.5, a PH (Thiobacilli (consortium) [2]; salt 0.13 M, day 30) of 2.4 and a PH (Thiobacilli (consortium) [2]; salt 0.13 M, day 40) of 1.5. For the same compound, the PH (Thiobacilli (consortium) [2]; salt 0.26 M, day 0) was 6.0, the PH (Thiobacilli (consortium) [2]; salt 0.26 M, day 2) was 6.0 and the PH (Thiobacilli (consortium) [2]; salt 0.26 M, day 6) was 5.5. It also gave a PH (Thiobacilli (consortium) [2]; salt 0.26 M, day 9) of 5.5, a PH (Thiobacilli (consortium) [2]; salt 0.26 M, day 12) of 5.5 and a PH (Thiobacilli (consortium) [2]; salt 0.26 M, day 15) of 5.5. The PH (Thiobacilli (consortium) [2]; salt 0.26 M, day 18) was 5.2, the PH (Thiobacilli (consortium) [2]; salt 0.26 M, day 20) was 5.2 and the PH (Thiobacilli (consortium) [2]; salt 0.26 M, day 24) was 5.0. For the same compound, the PH (Thiobacilli (consortium) [2]; salt 0.26 M, day 28) was 5.0, the PH (Thiobacilli (consortium) [2]; salt 0.26 M, day 30) was 5.0 and the PH (Thiobacilli (consortium) [2]; salt 0.26 M, day 40) was 4.9. For the same compound, the PH (Thiobacilli (consortium) [2]; salt 0.56 M, day 0) was 6.0, the PH (Thiobacilli (consortium) [2]; salt 0.56 M, day 2) was 6.0 and the PH (Thiobacilli (consortium) [2]; salt 0.56 M, day 6) was 6.0. For the same compound, the PH (Thiobacilli (consortium) [2]; salt 0.56 M, day 9) was 6.0, the PH (Thiobacilli (consortium) [2]; salt 0.56 M, day 12) was 6.0 and the PH (Thiobacilli (consortium) [2]; salt 0.56 M, day 15) was 6.0. It also gave a PH (Thiobacilli (consortium) [2]; salt 0.56 M, day 18) of 6.0, a PH (Thiobacilli (consortium) [2]; salt 0.56 M, day 20) of 6.0 and a PH (Thiobacilli (consortium) [2]; salt 0.56 M, day 24) of 6.0. The PH (Thiobacilli (consortium) [2]; salt 0.56 M, day 28) was 6.0, the PH (Thiobacilli (consortium) [2]; salt 0.56 M, day 30) was 6.0 and the PH (Thiobacilli (consortium) [2]; salt 0.56 M, day 40) was 5.8.

Work on O=[N+]([O-])[O-].[K+] [KNO3] yielded a PH (Thiobacilli (consortium) [2]; salt 0.09 M, day 0) of 6.0, a PH (Thiobacilli (consortium) [2]; salt 0.09 M, day 2) of 6.0 and a PH (Thiobacilli (consortium) [2]; salt 0.09 M, day 6) of 3.8. For the same compound, the PH (Thiobacilli (consortium) [2]; salt 0.09 M, day 9) was 3.0, the PH (Thiobacilli (consortium) [2]; salt 0.09 M, day 12) was 3.0 and the PH (Thiobacilli (consortium) [2]; salt 0.09 M, day 15) was 3.0. It also gave a PH (Thiobacilli (consortium) [2]; salt 0.09 M, day 18) of 3.0, a PH (Thiobacilli (consortium) [2]; salt 0.09 M, day 20) of 3.0 and a PH (Thiobacilli (consortium) [2]; salt 0.09 M, day 24) of 3.0. For the same compound, the PH (Thiobacilli (consortium) [2]; salt 0.09 M, day 28) was 3.0, the PH (Thiobacilli (consortium) [2]; salt 0.09 M, day 30) was 3.0 and the PH (Thiobacilli (consortium) [2]; salt 0.09 M, day 40) was 3.0. It also gave a PH (Thiobacilli (consortium) [2]; salt 0.19 M, day 0) of 6.0, a PH (Thiobacilli (consortium) [2]; salt 0.19 M, day 2) of 6.0 and a PH (Thiobacilli (consortium) [2]; salt 0.19 M, day 6) of 4.8. It also gave a PH (Thiobacilli (consortium) [2]; salt 0.19 M, day 9) of 4.0, a PH (Thiobacilli (consortium) [2]; salt 0.19 M, day 12) of 4.0 and a PH (Thiobacilli (consortium) [2]; salt 0.19 M, day 15) of 4.0. It also gave a PH (Thiobacilli (consortium) [2]; salt 0.19 M, day 18) of 4.0, a PH (Thiobacilli (consortium) [2]; salt 0.19 M, day 20) of 4.0 and a PH (Thiobacilli (consortium) [2]; salt 0.19 M, day 24) of 4.0. The PH (Thiobacilli (consortium) [2]; salt 0.19 M, day 28) was 4.0, the PH (Thiobacilli (consortium) [2]; salt 0.19 M, day 30) was 3.3 and the PH (Thiobacilli (consortium) [2]; salt 0.19 M, day 40) was 3.2. It also gave a PH (Thiobacilli (consortium) [2]; salt 0.5 M, day 0) of 6.0, a PH (Thiobacilli (consortium) [2]; salt 0.5 M, day 2) of 6.0 and a PH (Thiobacilli (consortium) [2]; salt 0.5 M, day 6) of 6.0. The PH (Thiobacilli (consortium) [2]; salt 0.5 M, day 9) was 6.0, the PH (Thiobacilli (consortium) [2]; salt 0.5 M, day 12) was 6.0 and the PH (Thiobacilli (consortium) [2]; salt 0.5 M, day 15) was 6.0. The PH (Thiobacilli (consortium) [2]; salt 0.5 M, day 18) was 6.0, the PH (Thiobacilli (consortium) [2]; salt 0.5 M, day 20) was 6.0 and the PH (Thiobacilli (consortium) [2]; salt 0.5 M, day 24) was 6.0. The PH (Thiobacilli (consortium) [2]; salt 0.5 M, day 30) was 6.0, the PH (Thiobacilli (consortium) [2]; salt 0.5 M, day 40) was 5.8 and the PH (Thiobacilli (consortium) [3]) was 6.0.

O=S(=O)([O-])[O-].[Na+].[Na+] [Na2SO4] gave a PH (Thiobacilli (consortium) [2]; salt 0.12 M, day 0) of 6.0, a PH (Thiobacilli (consortium) [2]; salt 0.12 M, day 2) of 6.0 and a PH (Thiobacilli (consortium) [2]; salt 0.12 M, day 6) of 3.5. It also gave a PH (Thiobacilli (consortium) [2]; salt 0.12 M, day 9) of 2.8, a PH (Thiobacilli (consortium) [2]; salt 0.12 M, day 12) of 2.8 and a PH (Thiobacilli (consortium) [2]; salt 0.12 M, day 15) of 2.8. The PH (Thiobacilli (consortium) [2]; salt 0.12 M, day 18) was 2.5, the PH (Thiobacilli (consortium) [2]; salt 0.12 M, day 20) was 1.8 and the PH (Thiobacilli (consortium) [2]; salt 0.12 M, day 24) was 1.8. The PH (Thiobacilli (consortium) [2]; salt 0.12 M, day 28) was 1.6, the PH (Thiobacilli (consortium) [2]; salt 0.12 M, day 30) was 1.6 and the PH (Thiobacilli (consortium) [2]; salt 0.12 M, day 40) was 1.4. For the same compound, the PH (Thiobacilli (consortium) [2]; salt 0.24 M, day 0) was 6.0, the PH (Thiobacilli (consortium) [2]; salt 0.24 M, day 2) was 6.0 and the PH (Thiobacilli (consortium) [2]; salt 0.24 M, day 6) was 4.5. It also gave a PH (Thiobacilli (consortium) [2]; salt 0.24 M, day 9) of 4.0, a PH (Thiobacilli (consortium) [2]; salt 0.24 M, day 12) of 3.5 and a PH (Thiobacilli (consortium) [2]; salt 0.24 M, day 15) of 3.0. For the same compound, the PH (Thiobacilli (consortium) [2]; salt 0.24 M, day 18) was 2.8, the PH (Thiobacilli (consortium) [2]; salt 0.24 M, day 20) was 2.0 and the PH (Thiobacilli (consortium) [2]; salt 0.24 M, day 24) was 2.0. For the same compound, the PH (Thiobacilli (consortium) [2]; salt 0.24 M, day 28) was 1.7, the PH (Thiobacilli (consortium) [2]; salt 0.24 M, day 30) was 1.5 and the PH (Thiobacilli (consortium) [2]; salt 0.24 M, day 40) was 1.5. The PH (Thiobacilli (consortium) [2]; salt 0.56 M, day 0) was 6.0, the PH (Thiobacilli (consortium) [2]; salt 0.56 M, day 2) was 6.0 and the PH (Thiobacilli (consortium) [2]; salt 0.56 M, day 6) was 6.0. For the same compound, the PH (Thiobacilli (consortium) [2]; salt 0.56 M, day 9) was 6.0, the PH (Thiobacilli (consortium) [2]; salt 0.56 M, day 12) was 6.0 and the PH (Thiobacilli (consortium) [2]; salt 0.56 M, day 15) was 5.9. The PH (Thiobacilli (consortium) [2]; salt 0.56 M, day 18) was 5.9, the PH (Thiobacilli (consortium) [2]; salt 0.56 M, day 20) was 5.9 and the PH (Thiobacilli (consortium) [2]; salt 0.56 M, day 24) was 5.9. It also gave a PH (Thiobacilli (consortium) [2]; salt 0.56 M, day 28) of 5.9, a PH (Thiobacilli (consortium) [2]; salt 0.56 M, day 30) of 5.9 and a PH (Thiobacilli (consortium) [2]; salt 0.56 M, day 40) of 5.8.
